Measured values: the METLIN SMRT retention time set (Domingo-Almenara et al. 2019)

Assay: gradient 5% acetonitrile 3 min, to 50% in 2 min, to 85% in 15 min, held 3 min, 100 µL/min
Conditions: column: Zorbax Extend-C18 2.1 x 50 mm; eluents: water / acetonitrile, 0.1% formic acid
In short: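 Retention times of pure standards were taken from adduct peaks that were selected by computer and manually inspected. Over 3 months, mixtures of ~100 molecules were run by HPLC–quadrupole time-of-flight mass spectrometry in positive and negative ionization mode. The Zorbax Extend-C18 column (2.1 × 50 mm, 1.8 μm) ran at 100 μL/min in water and acetonitrile, each containing 0.1% formic acid, with 40 μL dead volume and 900 μL dwell volume.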

| RP-LC retention time | Structure (SMILES) |
| --- | --- |
| 910 s | CCCCOC(=O)c1ccc(NC(=O)c2c(OCC)cc(=O)n3c2CCCC3)cc1 |
| 782 s | O=C(c1ccc(OCC2CCN(C(=O)C3CCC3)CC2)cc1)N1CCCC1 |
| 625 s | COc1cccc(S(=O)(=O)N2CCC(N3C[C@H](OC)[C@@H]3c3ccncc3)CC2)c1 |
| 596 s | Cc1ccc(C(=O)NCCCN2CCCC2)cc1NC(=O)C1=CSCCO1 |
| 752 s | COc1ccc(N2CC(c3nc(-c4ccncc4)no3)CC2=O)cc1Cl (centres undefined) |
| 800 s | CC(C)c1ccc(Nc2c(-c3ccccc3O)nc3ncccn23)cc1 |
| 833 s | CCCn1cc(S(=O)(=O)NCc2cccs2)c2cccnc21 |
| 639 s | COc1cc(NS(=O)(=O)c2cc3n(c2)CCCNC3=O)cc(OC)c1 |
| 782 s | O=C(NC1CCN(c2cc(-c3cccs3)[nH]n2)C1)c1ccc(Br)cc1 (centres undefined) |
| 927 s | CCOc1ccc(-c2nc(C3CC(=O)N(c4ccc(OC)cc4)C3)no2)cc1OCC (centres undefined) |
| 825 s | COC(=O)CSc1nnc2c(S(=O)(=O)N3CCN(c4ccc(F)cc4)CC3)cccn12 |
| 872 s | O=C(CSC1CCc2ccccc2NC1=O)Nc1cccc(Br)c1 (centres undefined) |
| 1090 s | CCOc1ccc(CNC(=O)c2snc(C(=O)NCc3ccccc3Cl)c2N)cc1OCC |
| 1210 s | Cc1ccccc1S(=O)(=O)N1CCC2(CC1)CC(OCc1ccccc1)CCO2 (centres undefined) |
| 605 s | O=C(CC1CCN(C(=O)c2ccc3oc(C4CC4)nc3c2)CC1)NCc1ccccn1 |
| 987 s | O=C(NCc1nc(-c2ccc(Oc3ccc(Cl)cc3)cc2)no1)c1ccco1 |
| 1000 s | Cc1occc1-c1nnc2sc(COc3ccc(Cl)cc3)nn12 |
| 878 s | CCCS(=O)(=O)N1CCc2ccc(NC(=O)Oc3ccccc3)cc2C1 |
| 999 s | COC(=O)c1c(C)oc2ccc(OCC(=O)c3ccc(F)cc3)cc12 |
| 579 s | CN1C(=O)C2CCCCN2c2ccc(C(=O)NCCCN3CCOCC3)cc21 (centres undefined) |
| 796 s | O=C(NCc1ccc2c(c1)OCO2)C1CCN(C(=O)c2ccc(-c3noc(C4CC4)n3)cc2)CC1 |
| 643 s | COc1ccc(CN2C(=O)COC[C@H]2C(=O)NC2CC2)c(OC)c1 |
| 598 s | CCS(=O)(=O)Nc1ccc(S(=O)(=O)Nc2nc(C)cc(C)n2)cc1 |

| RP-LC retention time | Structure (SMILES) |
| --- | --- |
| 987 s | CCCCC(C)C(=O)NC1CCN(C2=NS(=O)(=O)C(c3ccc(C)c(C)c3)=C2C)CC1 (centres undefined) |
| 700 s | Cn1cc(CCNC(=O)c2ccccc2C(F)(F)F)c2cccnc21 |
| 740 s | O=C(NCCc1csc(-c2cccs2)n1)C1CCN(C(=O)c2ccccc2)CC1 |
| 1060 s | COc1cc(CNC(=O)C2CCCN(c3nccnc3Sc3ccc(C)cc3)C2)cc(OC)c1 (centres undefined) |
| 643 s | O=C(C1CC=CC1)N1CCC2(CC1)NCCc1c2[nH]c2ccccc12 |
| 857 s | COCc1nnc(-c2cc(C)cc(C)c2)o1 |
| 989 s | CCCn1c(=O)sc2cc(S(=O)(=O)N3CCC(C(=O)N4CCc5ccccc5C4)CC3)ccc21 |
| 603 s | Cn1c(CNC(=O)C2CCC2)nc2c1CN(C(=O)Nc1ccc(F)cc1)CC2 |
| 753 s | CCC1CN2C=Nc3oc(C)c(C(=O)Nc4ccc(C(F)(F)F)cc4)c3C2=N1 (centres undefined) |
| 750 s | CCCC(NC(=O)CCc1ccccc1OC)C(=O)Nc1nc2ccccc2[nH]1 (centres undefined) |
| 1170 s | Cc1ccc(Nc2c(-c3cc(Br)ccc3O)nc3ncccn23)cc1Cl |
| 770 s | COC(=O)c1cc(S(=O)(=O)N2CCCC2C(=O)N2CCC(C)CC2)cn1C (centres undefined) |
| 988 s | O=C(CSc1cc(NCc2ccc(Cl)cc2)ncn1)Nc1ccc(F)cc1F |
| 846 s | CCOC(=O)C(Cc1ccc(O)cc1)Nc1nc2ccccc2o1 (centres undefined) |
| 903 s | O=C(Cn1c(=O)c2cccn2c2ccc(F)cc21)NCc1cccc(Br)c1 |
| 1050 s | O=c1c2cc(-c3cccs3)nn2cnn1Cc1nc(-c2ccccc2)no1 |
| 921 s | CCc1ccc(NC(=O)N2CCC(n3cnc4ccc(Cl)cc4c3=O)CC2)cc1 |
| 777 s | COc1ccc(CSc2nccc3c2ccn3CC(=O)N2CCN(c3ccc(F)cc3)CC2)cc1 |
| 1140 s | COc1ccc(-c2ccnn2-c2ccc(SCC(=O)Nc3cc(C)ccc3C)nn2)cc1 |
| 896 s | Cc1cccc(S(=O)(=O)Nc2ccc3c(c2)CCC(=O)N3CC(C)C)c1 |
| 684 s | O=C(C1CCN(c2cnc(N3CCOCC3)nc2)CC1)N1CCCCCC1 |
| 762 s | Cc1ccc(NC(=O)c2cnn3c2CCCC3)c(C)c1 |
| 891 s | O=C(CSc1ncnc2c1[nH]c1ccc(F)cc12)N1CCc2ccccc2C1 |

| RP-LC retention time | Structure (SMILES) |
| --- | --- |
| 892 s | O=C(NCC(=O)N1CCCc2ccccc21)c1ccc(Br)cc1 |
| 679 s | Cc1ccc(-c2nnc(-c3cccc(S(=O)(=O)N4CCN(C)CC4)c3)o2)cc1 |
| 1360 s | CC(C)(C)c1ccc(-c2noc(Cn3c(=O)n(CCc4ccccc4)c(=O)c4sccc43)n2)cc1 |
| 972 s | Cc1cc(NC(=O)Nc2cc(Cl)ccc2C)no1 |
| 570 s | Nc1cccc(-c2ccc(N3CCCCC3)nn2)c1 |
| 820 s | c1ccc(-c2nc3nccc(-c4ccccn4)n3n2)cc1 |
| 1070 s | Cc1c(S(=O)(=O)N2CCCC(C)C2)c(C)n(C)c1C(=O)N1CCc2ccccc21 (centres undefined) |
| 677 s | CCOC(=O)C1CCN(C(=O)NCc2cccs2)CC1 |
| 1010 s | O=C(Nc1ccc2c(c1)OCCO2)c1cc2nc(N3CCCCC3)sc2s1 |
| 756 s | CCN(C(=O)Cn1ncc2c(c1=O)N(C)C(=O)CS2)c1cccc(C)c1 |
| 995 s | Cc1ccccc1CNC(=O)C1(C)CCCN(C(=O)Nc2ccc(Cl)cc2)C1 (centres undefined) |
| 1020 s | Cc1ccccc1OCc1nc(CCN(C)C(=O)CC2CCCC2)no1 |
| 890 s | CCCn1cc(S(=O)(=O)Nc2cc(F)cc(F)c2)c2cccnc21 |
| 694 s | NS(=O)(=O)c1ccc(NC(=O)CCCN2C(=O)c3cccc4cccc(c34)C2=O)cc1 |
| 644 s | O=C(Cc1cccc(Cl)c1)N1CCN(c2nc(CN3CCOCC3)cs2)CC1 |
| 684 s | Cc1ccc(CN2CC(n3cc(COc4ccc(F)cc4)nn3)C2)s1 |
| 1100 s | O=C(CCc1cn(-c2ccccc2)nc1-c1ccc2c(c1)OCO2)NCCc1ccco1 |
| 856 s | CCCc1ccc(S(=O)(=O)N2CCN(c3cnn4c(C5CC5)nnc4c3)CC2)cc1 |
| 677 s | Cc1cc(-c2nnc(NC(=O)CS(=O)(=O)c3ccc(Cl)cc3)o2)nn1C |
| 1050 s | COCCn1cc(C(=O)Nc2ccc(Cl)cc2)c2nn(-c3ccccc3)c(=O)c-2c1 |
| 545 s | CC(C)NC(=O)c1cn2c(n1)CCCC2 |
| 691 s | Cc1nc(C)c(C(=O)Nc2ccccc2NC(=O)c2ccccn2)s1 |
| 839 s | Cc1ccc(NC(=O)C2CC(=O)N(c3n[nH]c4cc(Br)ccc34)C2)cc1 (centres undefined) |

| RP-LC retention time | Structure (SMILES) |
| --- | --- |
| 1110 s | CCCCCOc1ccc(C(=O)N(Cc2ccc(C)o2)C2CCS(=O)(=O)C2)cc1 (centres undefined) |
| 794 s | CCCNC(=O)N1CCCN(C2=NS(=O)(=O)C(c3ccc(Cl)cc3)=C2C)CC1 |
| 1210 s | CCn1c(C(=O)N2CCCC(C(=O)NC(C)C34CC5CC(CC(C5)C3)C4)C2)cc2sccc21 (centres undefined) |
| 661 s | CC1CCN(C(=O)C2CCCN(C(=O)c3nnc(C(=O)Nc4ccc(F)cc4)s3)C2)CC1 (centres undefined) |
| 868 s | CCc1ccc(NC(=O)Cc2nc(C)c(C(=O)NCC(C)C)s2)cc1 |
| 774 s | COc1ccc(S(=O)(=O)Nc2ccc3nc(-c4ccc(F)cc4)cc(OC)c3c2)cc1 |
| 905 s | CCNC(=O)N1CCCC(c2cccc(C(=O)NCc3ccccc3C(F)(F)F)c2)C1 (centres undefined) |
| 627 s | O=C(c1ccccc1Br)N1CCN(c2nc(CN3CCCC3)cs2)CC1 |
| 651 s | O=C1NC(C(=O)NC2CCCCC2)Cn2cccc21 (centres undefined) |
| 953 s | Cc1cc(C)cc(C(=O)N2CCC(COc3ccc(C(=O)NC(C)C)cc3)CC2)c1 |
| 760 s | CCn1c(=O)n(CC)c2cc(S(=O)(=O)c3ccc(C)cc3)c(N)cc21 |
| 1050 s | Cc1sc(-c2noc(C3CC3)n2)cc1S(=O)(=O)N1CCC(C(=O)N2CCCCCC2)CC1 |
| 744 s | COc1cc(NC(=O)c2ccc(-n3cnc(NC(=O)C4CC4)c3)cc2)cc(OC)c1 |
| 1100 s | CC(C)c1noc(C2(NC(=O)c3ccc(Cl)cc3)CCCCC2)n1 |
| 685 s | CS(=O)(=O)N(C1CCOCC1)C1CN(C(=O)c2cc3ccccc3[nH]2)C1 |
| 1100 s | CCOC(=O)c1nc(Nc2ccccc2OCC)c2c(CC)noc2n1 |
| 959 s | CCN(CC)S(=O)(=O)c1ccc2c(c1)CC(C(=O)NC1CCCCCCC1)N2C(C)=O (centres undefined) |
| 1050 s | Cc1c(C(=O)NCC(C)C)cnn1-c1ccc(-c2nc(C(C)C)no2)cn1 |
| 578 s | Cc1cc(F)ccc1NC(=O)CCNc1cnc2cnccn12 |
| 690 s | COc1ccc(NC(=O)c2ccc3[nH]c4c(c3c2)CN(C(C)=O)CC4)c(OC)c1 |
